According to patent US8394829B2, “Bi-functional quinoline analogs” (Gilead Sciences, Inc., priority 2010, dated 2013):

Legend:
[1] = molecular target: T1, human recombinant beta-2 adrenoreceptors (Homo sapiens, UniProt P07550); test: Beta-2 adrenoceptor binding assay ([3H](−)CGP-12177 displacement); conditions: CHO cells expressing human beta-2 adrenoreceptors, [3H](−)CGP-12177 0.3 nM, 120 min
T1 construct: expressed in transfected cells; host or cells: CHO cells
Experimental: Beta-2 Adrenoceptor Binding Assay
Test compounds were incubated for 120 min with Chinese hamster oocyte (CHO) cells expressing the human recombinant beta-2 adrenoreceptors. Binding of test compounds to the beta-2 adrenoreceptors was determined by measuring the displacement of the radiolabeled ligand [^3H](−)CGP-12177 (0.3 nM) from the receptor measured by a scintillation counting. Concentration response curves were generated for test compounds and the IC50 (molar concentration of the compound which produced 50% inhibition for the maximal response for that compound) was determined. These assays were performed using a protocol based on the original description of the assay by Joseph et al., (2004) Naun.-Sch. Arch. Pharm.; 369:525-532.
IC50 determinations for the compounds presented above are seen in the second column of Table 1 (Beta 2 IC50).

[2] = molecular target: T1, human recombinant beta-2 adrenoreceptors; test: Functional agonism of human recombinant beta-2 adrenoreceptors expressed in CHO cells (cAMP HTRF); format: cell-based; conditions: CHO cells expressing human beta-2 adrenoreceptors, cAMP elevation, 30 min
Experimental: Functional Agonism of Human Recombinant Beta-2 Adrenoreceptors Expressed in Chinese Hamster Oocytes (CHO)
Test compounds were incubated for 30 min with CHO cells expressing the human recombinant beta-2 adrenoreceptors. Agonism of the receptor was measured by the elevation of intracellular cyclic-AMP over control levels detected using a homogeneous time resolved fluorescence (HTRF) format. Compounds were determined to be “full” or “partial” agonists based on the maximum level of cAMP accumulated compared to the control compound isoproterenol which is a full agonist in this assay system. Concentration response curves were generated for test compounds and the EC50 (molar concentration of the agonist which produced 50% of the maximal response for that compound) was determined. These assays were performed using a protocol based on the original description of the assay by Baker, J. G. (2005) Brit. J. Pharmacol.; 144:317-322.
EC50 determinations for the compounds presented above are seen in the third column of Table 1 (Beta 2 EC50).

Human recombinant PDE4B2 = molecular target: T2, Human recombinant PDE4B2 (Homo sapiens, UniProt Q07343); test: Inhibition of PDE4B4 enzyme activity (PDE Glo Assay); format: biochemical; conditions: human recombinant PDE4B2, 50 nM cAMP; read-out: PDE4 IC50
T2 construct: purchased BPS Bioscience
T2 sequence (Q07343 1-564 isoform Q07343-2): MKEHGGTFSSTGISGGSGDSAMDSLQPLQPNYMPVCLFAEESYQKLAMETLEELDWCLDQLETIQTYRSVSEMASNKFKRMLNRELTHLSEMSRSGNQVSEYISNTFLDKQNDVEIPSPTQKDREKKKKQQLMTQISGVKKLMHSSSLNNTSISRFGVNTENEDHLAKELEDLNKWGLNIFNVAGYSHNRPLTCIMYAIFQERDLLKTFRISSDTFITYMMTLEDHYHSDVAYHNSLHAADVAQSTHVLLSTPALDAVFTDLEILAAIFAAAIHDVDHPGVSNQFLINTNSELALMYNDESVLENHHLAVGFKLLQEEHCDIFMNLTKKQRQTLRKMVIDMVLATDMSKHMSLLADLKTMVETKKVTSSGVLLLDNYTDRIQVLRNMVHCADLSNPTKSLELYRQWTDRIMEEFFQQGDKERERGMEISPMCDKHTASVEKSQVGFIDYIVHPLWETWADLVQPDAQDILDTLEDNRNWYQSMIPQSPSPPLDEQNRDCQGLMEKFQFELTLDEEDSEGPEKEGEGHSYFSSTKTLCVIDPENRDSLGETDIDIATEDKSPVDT
Experimental: Biological Examples Inhibition of PDE4B4 Enzyme Activity
The inhibitory activity of test compounds were determined using the PDE Glo Assay (Promega, V1361). The PDE-Glo Reaction Buffer was prepared (1 mL 5× buffer+4 mL water) and 150 nM solution of test compound dissolved in the Reaction Buffer, followed by 1:3 serial dilutions into Reaction Buffer. […] Human recombinant PDE4B2 (BPS Bioscience) was added to test compound in Reaction Buffer at a concentration of 0.12 nM per reaction. The enzyme and test compound were pre-incubated together at rt for 10 min. 50 nM of the enzyme substrate cAMP was then added to initiate the enzyme reaction, with the reaction terminated after one hour. Termination Buffer (1 mL 5× termination buffer+3.9 mL water+100 μL of 100 mM IBMX (ICN Chemicals, in DMSO)), was added to each reaction well to terminate the reaction. Detection Buffer (1 mL 5×PDE-Glo Detection buffer+3.96 mL water+40 μL PKA (supplied in kit)) was added to the cAMP-enzyme-test compound mix and this secondary reaction proceeded for 20 minutes at rt. An equal volume of Kinase Glo Reagent was then added to the reaction mixture and after 10 min luminescence was measured using a luminometer (EnVision, 0.1 sec read for luminescence). Luminescence values were […] related to levels of cAMP in the reaction mixture. Data were plotted as relative light units (RLU) versus test compound concentration and the IC50 determined using GraphPad Prism 5.0, using a nonlinear curve fit in a single-site binding model.
IC50 determinations for the compounds presented above are seen in the first column of Table 1 (PDE4IC50).

[3] = system: LPS-induced TNF-α release from human peripheral blood mononuclear cells (PBMC); test: Inhibition of LPS-induced TNF-α release from human PBMC; format: cell-based; conditions: LPS 0.4 ng/mL, 6 h, presence or absence of ICI-118551 not given
Text: Inhibition of Lipopolysaccharide (LPS)-Induced Tumour Necrosis Factor Alpha (TNF-α) Release from Human Peripheral Blood Mononuclear Cells (PBMC)
Human whole blood was drawn from donors and cell purification initiated within two hours. Peripheral blood mononuclear cells (PBMC) were purified using a standard Ficoll gradient purification technique and aliquoted at a concentration of 100,000 cells/well in 96 well plates. Beta-2 adrenoreceptor agonists are also anti-inflammatory for some immune cells expressing the receptor and in this assay they can inhibit tumor necrosis factor-alpha (TNF-α) production. Therefore PBMC were pre-incubated for 30 min in the presence of the beta-2 adrenoreceptor antagonist ICI-118551 [3-(isopropylamino)-1-[(7-methyl-4-indanyl)oxy]butan-2-ol] (10 μM) to determine the PDE4 directed activity of test compounds, and in the absence of ICI-118551 for the combined PDE4 and beta-2 receptor directed activity. Test compounds were dissolved in DMSO and diluted in buffer (final DMSO concentration of 0.1% v/v) and were then added to the cell suspensions and pre-incubated for a further 1 h at 37° C. LPS solution was then added (0.4 ng/mL) and the cells incubated for a further 6 h. At the end of the incubation period the cell supernatants were collected and TNF-α was measured using a Procarta Cytokine Assay Kit (Affymetrix, Santa Clara, Calif.) according to the manufacturers' instructions. Data were analyzed using MiraiBio Masterplex QT v4.0 software (MasterPlex Version 1.0.1.18 Copyright 2008, Hitachi Software Engineering Co., Ltd) and used to extrapolate Mean Fluorescence Intensity (MFI) into concentrations of TNF-α and mean values from replicate wells were determined. Inhibition curves were plotted using a nonlinear curve fit employing a single-site binding model to determine the IC50 value for each test compound in the presence or absence of ICI-118551 using GraphPad Prism 5 for Windows, version 5.02 (GraphPad Software, San Diego Calif.).
EC50 determinations for the compounds presented above are seen in the fourth column of Table 1 (PBMC TNF EC50).

T1 sequence (P07550 whole entry): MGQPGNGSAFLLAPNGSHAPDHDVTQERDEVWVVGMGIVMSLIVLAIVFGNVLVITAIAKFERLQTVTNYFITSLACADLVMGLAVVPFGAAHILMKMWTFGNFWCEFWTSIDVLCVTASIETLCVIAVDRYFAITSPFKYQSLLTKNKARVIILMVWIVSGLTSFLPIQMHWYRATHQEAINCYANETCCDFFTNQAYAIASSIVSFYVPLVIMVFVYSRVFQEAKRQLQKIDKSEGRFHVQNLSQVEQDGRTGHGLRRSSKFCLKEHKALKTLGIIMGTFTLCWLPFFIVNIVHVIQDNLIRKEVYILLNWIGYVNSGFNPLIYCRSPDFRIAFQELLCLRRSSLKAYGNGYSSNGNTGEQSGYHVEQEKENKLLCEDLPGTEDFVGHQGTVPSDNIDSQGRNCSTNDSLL

| Structure (SMILES) | IC50 [1] [nM] | EC50 [2] [nM] | IC50 (Human recombinant PDE4B2) [nM] | EC50 [3] [nM] |
| --- | --- | --- | --- | --- |
| COc1cccc(Nc2c(C(N)=O)cnc3c(C)cc(S(=O)(=O)c4cccc(C(=O)NCCCCCCNC[C@H](O)c5ccc(O)c(NC=O)c5)c4)cc23)c1 [Example 27, (R)-6-[[3-[[6-[[2-(3-Formamido-4-hydroxyphenyl)-2-hydroxyethyl]amino]hexyl]carbamoyl]phenyl]sulfonyl]-4-((3-methoxyphenyl)amino]-8-methylquinoline-3-carboxamide] | < 100 | < 100 | < 100 | < 100 |
| COc1cccc(Nc2c(C(N)=O)cnc3c(C)cc(S(=O)(=O)c4cccc(C(=O)N(C)CCCCCCNC[C@H](O)c5ccc(O)c6[nH]c(=O)ccc56)c4)cc23)c1 [Example 14] | > 300 | > 300 | < 100 | < 100 |
| COc1cccc(Nc2c(C(N)=O)cnc3c(C)cc(S(=O)(=O)c4cccc(C(=O)Nc5ccc(C#CCCCN(C)C[C@H](O)c6ccc(O)c7[nH]c(=O)ccc67)cc5)c4)cc23)c1 [Example 8, (R)-6-((3-((4-(5-((2-hydroxy-2-(8-hydroxy-2-oxo-1,2-dihydroquinolin-5-yl)ethyl)(methyl)amino)pent-1-yn-1-yl)phenyl)carbamoyl)phenyl)sulfonyl)-4-((3-methoxyphenyl)amino)-8-methylquinoline-3-carboxamide] | > 300 | > 300 | < 100 | < 100 |
| COc1cccc(Nc2c(C(N)=O)cnc3c(C)cc(S(=O)(=O)c4cccc(C(=O)Nc5cccc(C#CCCCNC[C@H](O)c6ccc(O)c7[nH]c(=O)ccc67)c5)c4)cc23)c1 [Example 9, (R)-6-((3-((3-(5-((2-hydroxy-2-(8-hydroxy-2-oxo-1,2-dihydroquinolin-5-yl)ethyl)amino)pent-1-yn-1-yl)phenyl)carbamoyl)phenyl)sulfonyl)-4-((3-methoxyphenyl)amino)-8-methylquinoline-3-carboxamide] | < 100 | < 100 | < 100 | < 100 |
| COc1cccc(Nc2c(C(N)=O)cnc3c(C)cc(S(=O)(=O)c4cccc(C(=O)N5CCN(C(=O)c6cccc(CC(C)(C)NC[C@H](O)c7ccc(O)c8[nH]c(=O)ccc78)c6)CC5)c4)cc23)c1 [Example 18, (R)-6-((3-(4-(3-(2-((2-hydroxy-2-(8-hydroxy-2-oxo-1,2-dihydroquinolin-5-yl)ethyl)amino)-2-methylpropyl)benzoyl)piperazine-1-carbonyl)phenyl)sulfonyl)-4-((3-methoxyphenyl)amino)-8-methylquinoline-3-carboxamide] | < 100 | < 100 | < 100 | < 100 |
| COc1cccc(Nc2c(C(N)=O)cnc3c(C)cc(S(=O)(=O)c4cccc(C(=O)NCCCCCCNC[C@H](O)c5ccc(O)c6c5OCC(=O)N6)c4)cc23)c1 [Example 29, (R)-6-((3-((6-((2-hydroxy-2-(5-hydroxy-3-oxo-3,4-dihydro-2H-benzo[b][1,4]oxazin-8-yl)ethyl)amino)hexyl)carbamoyl)phenyl)sulfonyl)-4-((3-methoxyphenyl)amino)-8-methylquinoline-3-carboxamide] | < 100 | < 100 | < 100 | < 100 |

The next lines start with results.

| IC50 [1] [nM] | EC50 [2] [nM] | IC50 (Human recombinant PDE4B2) [nM] | Structure (SMILES) | EC50 [3] [nM] |
| --- | --- | --- | --- | --- |
| < 100 | < 100 | < 100 | COc1cccc(Nc2c(C(N)=O)cnc3c(C)cc(S(=O)(=O)c4cccc(C(=O)NCCCCCCNC[C@H](O)c5ccc(O)c6[nH]c(=O)ccc56)c4)cc23)c1 [Example 2, (R)-6-[[3-[[6-[[2-Hydroxy-2-(8-hydroxy-2-oxo-1,2-dihydroquinolin-5-yl)ethyl]amino]hexyl]carbamoyl]phenyl]sulfonyl]-4-((3-methoxyphenyl)amino]-8-methylquinoline-3-carboxamide] | < 100 |
| < 100 | < 100 | < 100 | COc1cccc(Nc2c(C(N)=O)cnc3c(C)cc(S(=O)(=O)c4cccc(C(=O)Nc5ccc(CCNC[C@H](O)c6ccc(O)c7[nH]c(=O)ccc67)cc5)c4)cc23)c1 [Example 12, (R)-6-[[3-[[4-[2-[[2-Hydroxy-2-(8-hydroxy-2-oxo-1,2-dihydroquinolin-5-yl)ethyl]amino]ethyl]phenyl]carbamoyl]phenyl]sulfonyl]-4-[(3-methoxyphenyl)amino]-8-methylquinoline-3-carboxamide] | < 100 |
| < 100 | < 100 | < 100 | COc1cccc(Nc2c(C(N)=O)cnc3c(C)cc(S(=O)(=O)c4cccc(C(=O)Nc5ccc(C#CCCCNC[C@H](O)c6ccc(O)c7[nH]c(=O)ccc67)cc5C)c4)cc23)c1 [Example 34, (R)-6-((3-((4-(5-((2-hydroxy-2-(8-hydroxy-2-oxo-1,2-dihydroquinolin-5-yl)ethyl)amino)pent-1-yn-1-yl)-2-methylphenyl)carbamoyl)phenyl)sulfonyl)-4-((3-methoxyphenyl)amino)-8-methylquinoline-3-carboxamide] | < 100 |
| < 100 | < 100 | < 100 | COc1cccc(Nc2c(C(N)=O)cnc3c(C)cc(S(=O)(=O)c4cccc(C(=O)Nc5ccc(C#CCCCCNC[C@H](O)c6ccc(O)c7[nH]c(=O)ccc67)cc5)c4)cc23)c1 [Example 7, (R)-6-((3-((4-(6-((2-hydroxy-2-(8-hydroxy-2-oxo-1,2-dihydroquinolin-5-yl)ethyl)amino)hex-1-yn-1-yl)phenyl)carbamoyl)phenyl)sulfonyl)-4-((3-methoxyphenyl)amino)-8-methylquinoline-3-carboxamide] | < 100 |
| < 100 | < 100 | < 100 | COc1cccc(Nc2c(C(N)=O)cnc3c(C)cc(S(=O)(=O)c4cccc(C(=O)Nc5ccc(C6(CCCCNC[C@H](O)c7ccc(O)c8[nH]c(=O)ccc78)SCCS6)cc5)c4)cc23)c1 [Example 37, (R)-6-((3-((4-(2-(4-((2-hydroxy-2-(8-hydroxy-2-oxo-1,2-dihydroquinolin-5-yl)ethyl)amino)butyl)-1,3-dithiolan-2-yl)phenyl)carbamoyl)phenyl)sulfonyl)-4-((3-methoxyphenyl)amino)-8-methylquinoline-3-carboxamide] | < 100 |
